We go through three compounds from paper PMC12398837 (Journal of Pharmaceutical Analysis, 2025).

Structures can show the parent of a compound that is named as a salt. Where two headings read alike, the source gives them in different places.

For orientation: IC50 means the concentration that inhibits the measured activity by half. The low end stands for inhibition by little substance, the high end for a need for much substance.

Data set [1] deals with T1, hDAT (Homo sapiens, UniProt Q01959).
T1 construct: expressed in transfected cells; host or cells: HEK-293T (HEK293T), stably transfected
T1 sequence (Q01959 whole entry): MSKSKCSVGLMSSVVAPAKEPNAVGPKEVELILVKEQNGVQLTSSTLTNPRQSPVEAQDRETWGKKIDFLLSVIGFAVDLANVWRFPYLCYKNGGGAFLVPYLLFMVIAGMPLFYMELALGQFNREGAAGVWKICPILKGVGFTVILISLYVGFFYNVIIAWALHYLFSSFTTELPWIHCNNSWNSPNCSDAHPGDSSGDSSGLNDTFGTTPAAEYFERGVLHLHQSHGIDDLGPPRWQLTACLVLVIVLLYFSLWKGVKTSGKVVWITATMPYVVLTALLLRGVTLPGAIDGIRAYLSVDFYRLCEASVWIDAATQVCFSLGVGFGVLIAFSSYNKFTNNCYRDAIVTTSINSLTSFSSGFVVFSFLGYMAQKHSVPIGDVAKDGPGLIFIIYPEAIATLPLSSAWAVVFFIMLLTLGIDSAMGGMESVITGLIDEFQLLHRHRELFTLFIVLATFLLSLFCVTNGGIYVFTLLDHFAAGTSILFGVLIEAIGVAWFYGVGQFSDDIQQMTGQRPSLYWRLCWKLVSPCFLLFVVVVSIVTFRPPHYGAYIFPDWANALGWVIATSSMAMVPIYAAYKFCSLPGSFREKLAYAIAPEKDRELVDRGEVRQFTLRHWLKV
Nature of the data set: Neurotransmitter Transporter Uptake Assay Kit, DA reuptake inhibition. The format is cell-based. The settings on record: Table 1; inhibition of dopamine reuptake, reduction of RFU. Here is the method:
DA uptake activity was measured using a Neurotransmitter Transporter Uptake Assay Kit (Molecular Devices, San Jose, CA, USA). […] 2-[4-(2-hydroxyethyl)-1-piperazinyl] ethanesulfonic acid (HEPES) buffer solution (150 mM NaCl, 5 mM KCl, 10 mM glucose, 2 mM CaCl2, 1 mM MgCl2, 10 mM HEPES, pH 7.4) was used to wash cells three times before the experiment. Cells in the experimental group were treated with six different compounds. After 15 min, the dye solution was added and the fluorescence intensity was measured for 30 min in the 520 nm range with excitation at 440 nm. The inhibition percentages were calculated using the end point measurements at 30 min. The four-parameter logistic nonlinear regression model was used to determine the half maximal inhibitory concentration (IC50) values.
The DA reuptake inhibitory activities of the six repurposed drugs were evaluated using the Neurotransmitter Transporter Uptake Assay Kit through dose-response assays. This assay employs a novel fluorescent indicator dye designed to mimic neurotransmitters, along with a masking dye to quench extracellular fluorescence, enabling precise measurement of transporter-mediated uptake activity.

The conditions of data set [2]: cited from earlier work.

As to `CCCN1CCCC[C@H]1C(=O)Nc1c(C)cccc1C` [Compound 4, Ropivacaine], half-maximal inhibition in data set [1] (IC50) required 753 nM. For the same compound, the “CNS and cardiac toxicity” value in data set [2] (previous research) is “mild CNS and cardiac toxicity”.
In data set [1], `Cc1cccc(C)c1NC(=O)C1CCCCN1C` (stereo not drawn) [Compound 14, Mepivacaine hydrochloride] returned an IC50 of 542 nM. For the same compound, the metabolism result in data set [2] (restricts application to peripheral nerve blockade) is given as “rapid metabolism”.
In data set [1], `CCCCN1CCCC[C@H]1C(=O)Nc1c(C)cccc1C` [Compound 19, Levobupivacaine] returned an IC50 of 1210 nM. Moreover, the “CNS and cardiac toxicity” value in data set [2] (particularly under acidosis and hyperkalemia) was “mild CNS and cardiac toxicity”.
